ChEMBL document CHEMBL5257043, “Bulbiferamide, an Antitrypanosomal Hexapeptide Cyclized via an N-Acylindole Linkage from a Marine Obligate Microbulbifer” (J Nat Prod, 2023)
Activity calls are given as the source filed them. The rule behind the calls is not given here. *1 amine or outer side, *2 acyl side, *3 side chain or, on linkers, in order; H or OH if unused. Where a SMILES comes first, the peptide text is derived from it. Bridges are numbered along the chain shown (N, C = ends). CO = O=C([*:1])[*:2]

Columns and labels:
[1] = test system: Trypanosoma cruzi; experiment: Antitrypanosomal activity against Trypanosoma cruzi Tulahuen epimastigotes incubated for 24 hrs by cell titer glo luminescent assay; assay type: functional, organism-based
[2] = test system: P338; experiment: Cytotoxicity against mouse P388 cells at 100 uM incubated for 84 hrs by MTT assay; assay type: functional, cell-based
[3] = test system: Kocuria rhizophila; experiment: Antimicrobial activity against Kocuria rhizophila ATCC9341 at 100 ug/ml incubated for 24 hrs by microplate reader assay; assay type: functional, organism-based; conditions: dose 100.0 µg/ml
[4] = test system: Staphylococcus aureus; experiment: Antimicrobial activity against Staphylococcus aureus FDA209 JC-1 at 100 ug/ml incubated for 24 hrs by microplate reader assay; assay type: functional, organism-based; conditions: dose 100.0 µg/ml
[5] = test system: Escherichia coli; experiment: Antimicrobial activity against Escherichia coli NIHJ JC-2 at 100 ug/ml incubated for 24 hrs by microplate reader assay; assay type: functional, organism-based; conditions: dose 100.0 µg/ml
[6] = test system: Ralstonia solanacearum; experiment: Antimicrobial activity against Ralstonia solanacearum SUPP1541 at 100 ug/ml incubated for 24 hrs by microplate reader assay; assay type: functional, organism-based; conditions: dose 100.0 µg/ml
[7] = test system: Agrobacterium tumefaciens; experiment: Antimicrobial activity against Rhizobium radiobacter NBRC14554 at 100 ug/ml incubated for 24 hrs by microplate reader assay; assay type: functional, organism-based; conditions: dose 100.0 µg/ml
[8] = test system: Candida albicans; experiment: Antimicrobial activity against Candida albicans NBRC0197 at 100 ug/ml by microplate reader assay; assay type: functional, organism-based; conditions: dose 100.0 µg/ml

`O=C(Cn1ccnc1[N+](=O)[O-])NCc1ccccc1` [BENZNIDAZOLE] gave an IC50 [1] of 20 µM.

With `CC[C@H](C)[C@@H]1NC(=O)[C@@H](NC(=O)[C@H](CC(C)C)NC(=O)N[C@@H](Cc2ccccc2)C(=O)O)Cc2cn(c3ccccc23)C(=O)[C@H](CC(C)C)NC(=O)[C@H](CCCNC(=N)N)NC1=O` ({Phe-CO}-LWIRL; lactam 2-C) the IC50 [1] was 4.1 µM, the Activity [2] was “inactive” and the Activity [3] was “inactive”. For the same compound, the Activity [4] was “inactive”, the Activity [5] was “inactive” and the Activity [6] was “inactive”. The Activity [7] was “inactive” and the Activity [8] was “inactive”.
